Assays:
Type in all cases: in vivo
Setaria = assay: Field test, postemergence herbicidal activity on Setaria in sulfonylurea-resistant rape; conditions: four weeks after the treatment; for pest or weed control at 1 g/ha: Setaria, post-emergence, 672 h, read-out: Injury of Setaria % Experimental value
Text: (§1) A synergistic effect exists when the effect of the composition exceeds the sum of the effects of the compounds applied separately.
(§2) If the actually observed activity (O) is greater than the expected activity (E), then the composition is superadditive, i.e., synergism is present.
(§3) Sulfonylurea herbicides-resistant non-genetically modified rape crops were planted with typical weeds under natural outdoors conditions. When the rape plants grew, the weed populations naturally occurred. The weeds were treated during postemergence at 2-4 leaf stage.

Galium = assay: Field test, postemergence herbicidal activity on Galium in sulfonylurea-resistant rape; conditions: four weeks after the treatment; for pest or weed control at 0.1 g/ha: Galium, post-emergence, 672 h, read-out: Injury of Galium % Experimental value
Text: as §1, §2, §3

Stellaria = assay: Field test, postemergence herbicidal activity on Stellaria in sulfonylurea-resistant rape; conditions: 10 gram ai/ha, four weeks after the treatment; for pest or weed control at 10 g/ha: Stellaria, post-emergence, 672 h, read-out: Injury of Stellaria % Experimental value
Text: as §1, §2, §3

Datura = assay: Field test, postemergence herbicidal activity against Datura in sulfonylurea-resistant rape; conditions: four weeks after the treatment; for pest or weed control at 5 g/ha: Datura, post-emergence, 672 h, read-out: Injury of Datura % Experimental value
Text: as §1, §2, §3

Alopecurus = assay: Field test, postemergence herbicidal activity on Alopecurus in sulfonylurea-resistant rape; conditions: four weeks after the treatment; for pest or weed control at 10 g/ha: Alopecurus, post-emergence, 672 h, read-out: Injury of Alopecurus % Experimental value
Text: as §1, §2, §3

Chenopodium = assay: Field test, postemergence herbicidal activity on Chenopodium in sulfonylurea-resistant rape
Text: (§4) A synergistic effect exists when the effect of the composition exceeds the sum of the effects of the compounds applied separately. The expected effect for a specific combination of two active compounds can be calculated using a so-called “Colby formula” (see S. R. Colby, “Calculating Synergistic and Antagonistic Responses of Herbicide Combinations”, Weeds 1967,15, 20-22) as follows: if
as §2
as §3, with “stage. To reflect the synergistic effect, they were treated with a lower dosage than the common dosage.” for “stage.”

Beckmannia = assay: Field test, postemergence herbicidal activity on Beckmannia in sulfonylurea-resistant rape
Text: as §4, §2
as §3, with “stage. To reflect the synergistic effect, they were treated with a lower dosage than the common dosage.” for “stage.”

[1] = Chenopodium, post-emergence, 672 h, sulfonylurea alone, 10 gram ai/ha, four weeks after the treatment, read-out: Injury of Chenopodium % Experimental value
[2] = sulfonylurea alone, 1 gram ai/ha
[3] = sulfonylurea alone, 0.1 gram ai/ha
[4] = sulfonylurea alone, 5 gram ai/ha
[5] = post-emergence, 672 h, sulfonylurea alone, 10 gram ai/ha, four weeks after the treatment, read-out: Injury of Beckmannia % Experimental value
[6] = sulfonylurea alone, 10 gram ai/ha
[7] = sulfonylurea alone, 10 gram ai/ha, four weeks after the treatment

**Q.** For “(±)-2-[(E)-3-chloroallyloxyimino]propyl-5-[2-(ethylthio) propyl]-3-hydroxycyclohexen-2-one [clethodim]”, which “Injury of Setaria % Experimental value” (Setaria; clethodim alone, 50 gram ai/ha) is on record?
**A.** 57.4%

**Q.** What about the “Injury of Galium % Experimental value” (Galium; clethodim alone, 10 gram ai/ha) of the same compound?
**A.** 0%

**Q.** What about the “Injury of Stellaria % Experimental value” (Stellaria; clethodim alone) of the same compound?
**A.** 0%

**Q.** What about the “Injury of Datura % Experimental value” (Datura; clethodim alone, 50 gram ai/ha) of the same compound?
**A.** 0%

**Q.** What about the “Injury of Alopecurus % Experimental value” (Alopecurus; clethodim alone, 1 gram ai/ha) of the same compound?
**A.** 5%

**Q.** Which results are given for `COc1cc(OC)nc(NC(=O)NS(=O)(=O)Nc2ccccc2C(=O)C2CC2)n1` [cyclosulfamuron]?
**A.** pest or weed control at 10 g/ha (Chenopodium; [1]): 4.1%; pest or weed control at 1 g/ha (Setaria; [2]): 0%; pest or weed control at 0.1 g/ha (Galium; [3]): 9%; pest or weed control at 10 g/ha (Stellaria; sulfonylurea alone): 48%; pest or weed control at 5 g/ha (Datura; [4]): 26%; pest or weed control at 10 g/ha (Beckmannia; [5]): 0%; pest or weed control at 10 g/ha (Alopecurus; [6]): 0%

**Q.** How did the pest or weed control at 10 g/ha (Chenopodium; [1]) turn out when `COC(=O)c1sccc1S(=O)(=O)NC(=O)Nc1nc(C)nc(OC)n1` [thifensulfuron-methyl, 3-(4-methoxy-6-methyl-1,3,5-triazin-2-yl)-1-(2-methoxyformylthiophen-3-yl)-sulfonylurea] was run?
**A.** 8.1%

**Q.** What about the pest or weed control at 1 g/ha (Setaria; [2]) of the same compound?
**A.** 0%

**Q.** And the pest or weed control at 0.1 g/ha (Galium; [3])?
**A.** 8%

**Q.** And the pest or weed control at 10 g/ha (Stellaria; sulfonylurea alone)?
**A.** 57%

**Q.** What about the pest or weed control at 5 g/ha (Datura; [4]) of the same compound?
**A.** 22%

**Q.** What about the pest or weed control at 10 g/ha (Beckmannia; [5]) of the same compound?
**A.** 0%

**Q.** And the pest or weed control at 10 g/ha (Alopecurus; [6])?
**A.** 0%

**Q.** What does the source list for `COc1nc(C)nc(NC(=O)NS(=O)(=O)c2ccccc2Cl)n1` [chlorsulfuron]?
**A.** pest or weed control at 10 g/ha (Chenopodium; [1]): 53.6%; pest or weed control at 1 g/ha (Setaria; [2]): 0%; pest or weed control at 0.1 g/ha (Galium; [3]): 10%; pest or weed control at 10 g/ha (Stellaria; sulfonylurea alone): 55%; pest or weed control at 5 g/ha (Datura; [4]): 34%; pest or weed control at 10 g/ha (Beckmannia; [5]): 36.2%; pest or weed control at 10 g/ha (Alopecurus; [6]): 54%

**Q.** For `COc1cc(OC)nc(NC(=O)NS(=O)(=O)c2ncccc2C(=O)N(C)C)n1` [nicosulfuron, 2-(4,6-dimethoxypyrimidin-2-ylcarbamoylsulfamoyl)-N,N-dimethylnicotinamide], which pest or weed control at 10 g/ha (Chenopodium; [1]) is on record?
**A.** 4%

**Q.** What about the pest or weed control at 1 g/ha (Setaria; [2]) of the same compound?
**A.** 2%

**Q.** What about the pest or weed control at 0.1 g/ha (Galium; [3]) of the same compound?
**A.** 1%

**Q.** What about the pest or weed control at 10 g/ha (Stellaria; sulfonylurea alone) of the same compound?
**A.** 60%

**Q.** What about the pest or weed control at 5 g/ha (Datura; [4]) of the same compound?
**A.** 11%

**Q.** What about the pest or weed control at 10 g/ha (Beckmannia; [5]) of the same compound?
**A.** 50.3%

**Q.** What about the pest or weed control at 10 g/ha (Alopecurus; [6]) of the same compound?
**A.** 5%

**Q.** How did the pest or weed control at 0.1 g/ha (Chenopodium; Chenopodium, post-emergence, 672 h, read-out: Injury of Chenopodium % Experimental value) turn out when `CCC/C(=N\OCC)C1=C(O)CC(CC(C)SCC)CC1=O` (racemic) [sethoxydim, (±)-2-[1-(ethoxyimino)butyl]-5-[2-(ethylthio)propyl]-3-hydroxy-2-cyclo hexen-1-one] was run?
**A.** 0%

**Q.** And the pest or weed control at 0.2 g/ha (Beckmannia; post-emergence, 672 h, read-out: Injury of Beckmannia % Experimental value)?
**A.** 0%

**Q.** Which results are given for `COC(=O)c1ccccc1S(=O)(=O)NC(=O)Nc1nc(C)nc(OC)n1` [metsulfuron-methyl, methyl 2-[(4-methoxy-6-methyl-1,3,5-triazin-2-yl)ureidosulfonyl]benzoate]?
**A.** pest or weed control at 10 g/ha (Chenopodium; [1]): 88.4%; pest or weed control at 1 g/ha (Setaria; [2]): 0%; pest or weed control at 0.1 g/ha (Galium; [3]): 11%; pest or weed control at 10 g/ha (Stellaria; sulfonylurea alone): 58%; pest or weed control at 5 g/ha (Datura; [4]): 27%; pest or weed control at 10 g/ha (Beckmannia; [5]): 24.8%; pest or weed control at 10 g/ha (Alopecurus; [6]): 82%

**Q.** With `COc1cc(OC)nc(NC(=O)NS(=O)(=O)N(C)S(C)(=O)=O)n1` [amidosulfuron, 1-(4,6-dimethoxypyrimidin-2-yl)-3-mesyl(methyl)sulfamoylurea] as the compound, how does the pest or weed control at 10 g/ha (Chenopodium; [1]) read?
**A.** 35.8%

**Q.** And the pest or weed control at 1 g/ha (Setaria; [2])?
**A.** 0%

**Q.** What about the pest or weed control at 0.1 g/ha (Galium; [3]) of the same compound?
**A.** 5%

**Q.** What about the pest or weed control at 10 g/ha (Stellaria; sulfonylurea alone) of the same compound?
**A.** 35%

**Q.** What about the pest or weed control at 5 g/ha (Datura; [4]) of the same compound?
**A.** 27%

**Q.** What about the pest or weed control at 10 g/ha (Beckmannia; [5]) of the same compound?
**A.** 0%

**Q.** What about the pest or weed control at 10 g/ha (Alopecurus; [6]) of the same compound?
**A.** 0%

**Q.** How did the pest or weed control at 10 g/ha (Chenopodium; [1]) turn out when `COC(=O)c1ccccc1CS(=O)(=O)NC(=O)Nc1nc(OC)cc(OC)n1` [bensulfuron-methyl, methyl 2-[((4,6-dimethoxypyrimidin-2-yl)aminocarbonylamino]sulfonylmethyl)benzoate] was run?
**A.** 12.2%

**Q.** And the pest or weed control at 1 g/ha (Setaria; [2])?
**A.** 0%

**Q.** And the pest or weed control at 0.1 g/ha (Galium; [3])?
**A.** 16%

**Q.** And the pest or weed control at 10 g/ha (Stellaria; sulfonylurea alone)?
**A.** 64%

**Q.** What about the pest or weed control at 5 g/ha (Datura; [4]) of the same compound?
**A.** 32%

**Q.** And the pest or weed control at 10 g/ha (Beckmannia; [5])?
**A.** 0%

**Q.** And the pest or weed control at 10 g/ha (Alopecurus; [6])?
**A.** 0%

**Q.** Which results are given for `COc1nc(C)nc(NC(=O)NS(=O)(=O)c2ccccc2OCCCl)n1` [triasulfuron, 1-[2-(2-chloroethoxyl)phenylsulfonyl]-3-(4-methoxy-6-methyl-1,3,5-triazin-2-yl)urea]?
**A.** pest or weed control at 10 g/ha (Chenopodium; [1]): 22.5%; pest or weed control at 1 g/ha (Setaria; [2]): 0%; pest or weed control at 0.1 g/ha (Galium; [3]): 13%; pest or weed control at 10 g/ha (Stellaria; sulfonylurea alone): 40%; pest or weed control at 5 g/ha (Datura; [4]): 28%; pest or weed control at 10 g/ha (Beckmannia; [5]): 0%; pest or weed control at 10 g/ha (Alopecurus; [6]): 0%

**Q.** What does the source list for `Cc1ccnc(NC(=O)NS(=O)(=O)c2ccccc2[N+](=O)[O-])n1` [monosulfuron]?
**A.** Injury of Chenopodium % Experimental value (Chenopodium; [7]): 23.5%; Injury of Setaria % Experimental value (Setaria; [2]): 0%; Injury of Galium % Experimental value (Galium; [3]): 7%; Injury of Stellaria % Experimental value (Stellaria; sulfonylurea alone): 34%; Injury of Datura % Experimental value (Datura; [4]): 24%; Injury of Beckmannia % Experimental value (Beckmannia; [7]): 7%; Injury of Alopecurus % Experimental value (Alopecurus; [6]): 5%
